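Where inhibition never reached the appropriate level, the endpoint shown equals the highest concentration tested. Otherwise, values were interpolated linearly from a five-concentration, 48-hour dose response in 96-well plates. Abbreviation: GI50, concentration required for 50% inhibition of growth. TGI: concentration producing complete growth inhibition.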
How the values were obtained:
Assay in all cases: NCI-60 cell line screen, 48 h
A498 renal = tested on: A498 renal
COLO 205 colon = tested on: COLO 205 colon
HCC-2998 colon = tested on: HCC-2998 colon
MDA-MB-435 = tested on: MDA-MB-435
OVCAR-4 ovarian = tested on: OVCAR-4 ovarian
OVCAR-5 ovarian = tested on: OVCAR-5 ovarian
SK-MEL-5 melanoma = tested on: SK-MEL-5 melanoma
T-47D breast = tested on: T-47D breast
UACC-62 melanoma = tested on: UACC-62 melanoma
UO-31 renal = tested on: UO-31 renal

Row | Compound | GI50 (A498 renal) | TGI (A498 renal) | GI50 (COLO 205 colon) | TGI (COLO 205 colon) | GI50 (HCC-2998 colon) | TGI (HCC-2998 colon) | GI50 (MDA-MB-435) | TGI (MDA-MB-435) | GI50 (OVCAR-4 ovarian) | TGI (OVCAR-4 ovarian) | GI50 (OVCAR-5 ovarian) | TGI (OVCAR-5 ovarian) | GI50 (SK-MEL-5 melanoma) | TGI (SK-MEL-5 melanoma) | GI50 (T-47D breast) | TGI (T-47D breast) | GI50 (UACC-62 melanoma) | TGI (UACC-62 melanoma) | GI50 (UO-31 renal) | TGI (UO-31 renal)
1 | COc1ccc(/C=C/C(=O)c2ccc(NC(=O)CSc3nnc(-c4cc(OC)c(OC)c(OC)c4)o3)cc2)cc1 | 11 µM | 23.6 µM | 1.94 µM | 3.84 µM | 1.88 µM | 3.65 µM | 1.7 µM | 3.4 µM | 2 µM | 4.62 µM | 1.72 µM | 3.3 µM | 2.14 µM | 5.24 µM | 2.05 µM | 5.08 µM | 1.73 µM | 3.43 µM | 1.46 µM | 2.97 µM
2 | COc1ccc2oc(-c3ccc(Cl)cc3)c(N3CCN(C)CC3)c2c1 | 1.53 µM | 3.15 µM | 1.68 µM | 3.62 µM | 2.02 µM | 4.13 µM | 1.83 µM | 4.06 µM | 2.12 µM | 7.22 µM | 1.95 µM | 4.34 µM | 1.58 µM | 3.06 µM | 2.32 µM | 6.78 µM | 1.73 µM | 3.44 µM | 1.05 µM | 2.71 µM
3 | COC1(C)Cc2c(c(C)c(O)c3c2C(=O)C=C(Cl)C3=O)O1 (stereo not given) | – | > 100 µM | – | 38.1 µM | – | > 100 µM | – | > 100 µM | – | > 86.8 µM | – | > 100 µM | – | > 100 µM | – | 36.7 µM | – | > 87.5 µM | – | > 100 µM
4 | N=c1c2c(=O)n3c(nc2nc2sc4ccc(Cl)cc4n12)-c1ccccc1Sc1ccccc1-3 | 0.371 µM | 3.6 µM | 2.24 µM | 5.24 µM | 3.12 µM | 12.8 µM | 2.67 µM | 13.1 µM | 3.5 µM | 19.6 µM | 4.62 µM | 24 µM | 1.42 µM | 3.86 µM | 2.54 µM | 7.23 µM | 1.28 µM | 3.27 µM | 2.29 µM | 9.97 µM
5 | COc1ccc(C2SC(C)C(=O)N2NC(=O)C(O)c2ccccc2)cc1 (stereo not given) | > 100 µM | > 100 µM | > 100 µM | > 100 µM | > 100 µM | > 100 µM | > 100 µM | > 100 µM | > 100 µM | > 100 µM | > 100 µM | > 100 µM | > 100 µM | > 100 µM | > 100 µM | > 100 µM | > 100 µM | > 100 µM | > 100 µM | > 100 µM
6 | Cc1cc(NC(=O)C(=O)Cc2nc3ccccc3s2)ccc1Cl | – | > 100 µM | – | > 100 µM | – | > 100 µM | – | > 100 µM | – | > 100 µM | – | > 100 µM | – | > 100 µM | – | > 100 µM | – | > 100 µM | – | > 100 µM
